Assay results as given in patent US20220033490A1 (priority 2018, published 2022).

Target: T1, α6*nAChR (Homo sapiens, UniProt Q15825)
T1 construct: endogenous in cells; host or cells: human inducible Tregs (from naïve CD4+ T cells of PBMCs) co-cultured with autologous CD8+ T cells
Assay type: cell-based

T1 sequence (Q15825 26-494): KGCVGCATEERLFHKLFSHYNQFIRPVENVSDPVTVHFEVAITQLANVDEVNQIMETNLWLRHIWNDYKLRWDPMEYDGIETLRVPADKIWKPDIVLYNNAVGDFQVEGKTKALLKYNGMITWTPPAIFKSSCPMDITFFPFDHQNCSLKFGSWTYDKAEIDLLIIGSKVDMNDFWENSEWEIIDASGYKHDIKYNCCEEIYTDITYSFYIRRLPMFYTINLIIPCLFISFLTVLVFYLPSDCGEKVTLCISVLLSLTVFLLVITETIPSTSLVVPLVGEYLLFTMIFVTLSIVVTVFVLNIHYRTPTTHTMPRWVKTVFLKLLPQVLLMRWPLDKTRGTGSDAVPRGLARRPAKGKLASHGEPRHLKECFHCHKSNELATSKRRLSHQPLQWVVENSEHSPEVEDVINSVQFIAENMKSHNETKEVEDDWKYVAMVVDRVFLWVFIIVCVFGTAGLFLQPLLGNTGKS

| Compound | IFNγ+CD8+ T-cells in co-culture | IFNγ+CD8+ T cells in co-culture |
| --- | --- | --- |
| CN1CCCC1c1cccnc1 (centres unmarked) [nicotine] | trend of decreasing IFNγ+CD8+ T-cells | – |
| alpha-conotoxin PIA [[…]-conotoxin PIA] | – | trend of increasing IFNγ+CD8+ T cells |
